According to ChEMBL document CHEMBL1141935, “Aminopiperidine indazoles as orally efficacious melanin concentrating hormone receptor-1 antagonists” (Bioorg Med Chem Lett, 2005):

How the values were obtained:
[1] = molecular target: T1, Melanin-concentrating hormone receptor 1 (Homo sapiens, UniProt Q99705); assay: Binding affinity to human MCHr1 from neuronal IMR32 cells; format: cell-based, IMR-32
[2] = molecular target: T1, Melanin-concentrating hormone receptor 1; assay: Functional antagonism of MCH-mediated calcium release by FLIPR using human MCHr1 from neuronal IMR32 cells; format: cell-based, IMR-32
[3] = AUC in DIO mice plasma at 10 mg/kg, po; format: ADME, organism-based; parameters: dose 10 mg/kg, route oral; conditions: mouse
[4] = AUC in DIO mice brain at 10 mg/kg, po; format: ADME, organism-based; parameters: dose 10 mg/kg, route oral; conditions: mouse
[5] = Half life in DIO mice plasma at 10 mg/kg, po; format: ADME, organism-based; parameters: dose 10 mg/kg, route oral; conditions: mouse
[6] = Half life in DIO mice brain at 10 mg/kg, po; format: ADME, organism-based; parameters: dose 10 mg/kg, route oral; conditions: mouse
[7] = Cmax in DIO mice plasma at 10 mg/kg, po; format: ADME, organism-based; parameters: dose 10 mg/kg, route oral; conditions: mouse
[8] = Cmax in DIO mice brain at 10 mg/kg, po; format: ADME, organism-based; parameters: dose 10 mg/kg, route oral; conditions: mouse

T1 sequence (Q99705 whole entry): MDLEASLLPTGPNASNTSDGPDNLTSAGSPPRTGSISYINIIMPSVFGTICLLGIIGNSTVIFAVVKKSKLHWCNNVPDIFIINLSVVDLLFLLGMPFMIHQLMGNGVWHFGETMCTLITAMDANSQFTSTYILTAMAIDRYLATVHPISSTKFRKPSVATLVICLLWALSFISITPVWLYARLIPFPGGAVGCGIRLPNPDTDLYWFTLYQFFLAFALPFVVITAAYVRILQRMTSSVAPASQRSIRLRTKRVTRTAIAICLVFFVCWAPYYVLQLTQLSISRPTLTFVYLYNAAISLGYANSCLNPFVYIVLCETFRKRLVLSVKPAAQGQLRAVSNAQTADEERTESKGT

Row | SMILES | IC50 [1] [nM] | IC50 [2] [nM] | AUC [3] [ng·h/mL] | AUC [4] [ng·h/mL] | half-life [5] [h] | half-life [6] [h] | Cmax [7] [ng/mL] | Cmax [8] [ng/mL]
1 | Cc1ccc2[nH]nc(NC3CCN(Cc4ccc5c(c4)OCO5)CC3)c2c1 | 110 | 1060 | – | – | – | – | – | –
2 | c1ccc2c(NC3CCN(Cc4ccc5c(c4)OCO5)CC3)[nH]nc2c1 | 440 | > 10000 | – | – | – | – | – | –
3 | COc1ccc(CN2CCC(Nc3[nH]nc4ccc(Cl)cc34)CC2)c(F)c1 | 240 | 5200 | – | – | – | – | – | –
4 | N#Cc1ccc2[nH]nc(NC3CCN(Cc4ccc5c(c4)OCO5)CC3)c2c1 | 220 | 3400 | – | – | – | – | – | –
5 | COc1cccc(CN2CCC(Nc3[nH]nc4ccc(Cl)cc34)CC2)c1 | 150 | 4500 | – | – | – | – | – | –
6 | Cc1ccc(CN2CCC(Nc3[nH]nc4ccc(Cl)cc34)CC2)cc1C | 100 | 1380 | – | – | – | – | – | –
7 | Clc1ccc2[nH]nc(NC3CCN(Cc4ccc5nsnc5c4)CC3)c2c1 | 50 | 4910 | – | – | – | – | – | –
8 | Clc1ccc2[nH]nc(NC3CCN(Cc4ccccc4)CC3)c2c1 | 850 | > 10000 | – | – | – | – | – | –
9 | Clc1ccc2[nH]nc(NC3CCN(Cc4ccc5c(c4)OCCO5)CC3)c2c1 | 70 | 1890 | – | – | – | – | – | –
10 | COc1cccc2[nH]nc(NC3CCN(Cc4ccc5c(c4)OCO5)CC3)c12 | 330 | > 10000 | – | – | – | – | – | –
11 | COc1ccc2[nH]nc(NC3CCN(Cc4ccc5c[nH]nc5c4)CC3)c2c1 | 50 | 380 | – | – | – | – | – | –
12 | O=C(C1CC1)n1nc(NC2CCN(Cc3ccc4c(c3)OCO4)CC2)c2cc(Cl)ccc21 | 40 | > 10000 | – | – | – | – | – | –
13 | COc1ccc2c(c1)c(NC1CCN(Cc3ccc4c(c3)OCO4)CC1)nn2C | 30 | 190 | – | – | – | – | – | –
14 | Clc1ccc(CN2CCC(Nc3[nH]nc4ccc(Cl)cc34)CC2)cc1 | 200 | 6200 | – | – | – | – | – | –
15 | Clc1ccc2c(c1)c(NC1CCN(Cc3ccc4c(c3)OCO4)CC1)nn2-c1ccccc1 | 50 | > 10000 | – | – | – | – | – | –
16 | Clc1ccc2c(c1)c(NC1CCN(Cc3ccc4c(c3)OCO4)CC1)nn2Cc1ccccc1 | 40 | 5230 | – | – | – | – | – | –
17 | Clc1ccc2c(c1)c(NC1CCN(Cc3ccc4ccccc4c3)CC1)nn2Cc1ccccn1 | 20 | 640 | – | – | – | – | – | –
18 | Clc1ccc2[nH]nc(NC3CCN(Cc4ccc5ccccc5c4)CC3)c2c1 | 40 | 1820 | – | – | – | – | – | –
19 | O=[N+]([O-])c1ccc2[nH]nc(NC3CCN(Cc4ccc5c(c4)OCCO5)CC3)c2c1 | 30 | 520 | – | – | – | – | – | –
20 | FC(F)(F)c1ccc2[nH]nc(NC3CCN(Cc4ccc5c(c4)OCO5)CC3)c2c1 | > 2000 | > 10000 | – | – | – | – | – | –
21 | Clc1ccc2[nH]nc(NC3CCN(Cc4ccc5c(c4)OCO5)CC3)c2c1 | 20 | 260 | 8760 | 59100 | 3.1 | 2.9 | 1880 | 12100

Continued, values first:

Row | IC50 [1] [nM] | IC50 [2] [nM] | AUC [3] [ng·h/mL] | AUC [4] [ng·h/mL] | half-life [5] [h] | half-life [6] [h] | Cmax [7] [ng/mL] | Cmax [8] [ng/mL] | SMILES
22 | 6 | 70 | 14400 | 22800 | 3.3 | 4 | 1520 | 3080 | O=[N+]([O-])c1ccc2[nH]nc(NC3CCN(Cc4ccc5c(c4)OCO5)CC3)c2c1
23 | 9 | 550 | – | – | – | – | – | – | Clc1ccc2c(c1)c(NC1CCN(Cc3ccc4c(c3)OCO4)CC1)nn2Cc1ccccn1
24 | 20 | 290 | 11900 | 5340 | 4.7 | 6 | 1690 | 758 | Clc1ccc2c(c1)c(NC1CCN(Cc3ccc4c(c3)OCO4)CC1)nn2Cc1cccnc1
25 | 20 | 2540 | 400 | – | 1 | – | 271 | – | O=C(c1cscn1)n1nc(NC2CCN(Cc3ccc4c(c3)OCO4)CC2)c2cc(Cl)ccc21
26 | 7 | 560 | – | – | – | – | – | – | Clc1ccc2c(c1)c(NC1CCN(Cc3ccc4c(c3)OCO4)CC1)nn2Cc1ccncc1
27 | 20 | 1140 | – | – | – | – | – | – | O=C(CN1CCOCC1)n1nc(NC2CCN(Cc3ccc4c(c3)OCO4)CC2)c2cc(Cl)ccc21
28 | 20 | 930 | 164 | – | 2.3 | – | 63 | – | O=C(c1cccnc1)n1nc(NC2CCN(Cc3ccc4c(c3)OCO4)CC2)c2cc(Cl)ccc21
29 | 8 | 60 | 7630 | 28500 | 3.9 | 4.9 | 1410 | 6040 | COc1ccc2[nH]nc(NC3CCN(Cc4ccc5c(c4)OCO5)CC3)c2c1
30 | 5 | 350 | – | – | – | – | – | – | O=[N+]([O-])c1ccc2c(c1)c(NC1CCN(Cc3ccc4c(c3)OCO4)CC1)nn2Cc1ccccc1
